For experiment [1], the target named is T1, PDE4B2 (Homo sapiens, UniProt Q07343).
T1 construct: the full length human PDE4B2 short isoform; made in house; cytosol fraction of cell lysate, prepared as described for PDE4D5
The experiment can be described thus: PDE assay, PDE4B2 short form (Experiment 1). Type of experiment: biochemical. The settings on record: 100 μM test compound; mean % increase in counts over basal activity. The protocol: (§1) One suitable method of detecting whether or not a compound is capable of serving as an activator of a PDE4 long form is using a two-step radio-assay procedure described in Experiment 1. In summary, the method involves incubating a PDE4 long form with a test small molecule activator, together with [^3H]-labelled cAMP to assess alterations in the breakdown of cAMP to the 5′-adenosine monophosphate (5′-AMP) product. A sample of the reaction mixture from such an incubation is subsequently treated with snake venom 5′-nucleotidase to allow conversion of the nucleotide [^3H]-labelled 5′-AMP to the uncharged nucleoside [^3H]-labelled adenosine, which can be separated and quantified to assess PDE4 activity and the effect of the test compound (Thompson, W. J. and Appleman, M. M. Biochemistry 10: 311-316, 1971, with some modifications as described in: Marchmont, R. J. and Houslay, M. D. Biochem J. 187: 381-92, 1980).
(§2) Experiment 1: Measurement of Modulation of Enzyme Activity by PDE4 Long Form Activators of the Present Invention Using Full-Length Human PDE4 Isoforms; Long Forms PDE4D5, PDE4C3, PDE4B1 and Short Form PDE4B2 • (Marchmont, R. J. and Houslay, M. D. Biochem. J. 187: 381-92, 1980)
(§3) Where stable cell lines were generated the clonal isolates were expanded to obtain cell lines that stably expressed the full-length human PDE4 long isoforms and the full length human PDE4B2 short isoform. These were called the HEK-PDE4D5, HEK-PDE4B1 and HEK-PDE4B2 cell lines, respectively.
(§4) PDE assays were performed in thin walled V-bottomed 96-well plates. The assays were performed at a final concentration of 10 mM Tris/5 mM MgCl2 plus PDE4D5 cell lysate cytosol fraction, containing over-expressed PDE4D5, with and without test compound. The lysate/compound mix were incubated together for 15 min at room temperature on an orbital shaker prior to addition of [^3H] cAMP (final concentration 1 μM [^3H] cAMP; Perkin Elmer) to a final volume of 50 μL per reaction. The reactions were then incubated for 10 minutes at 30° C., terminated by heating for 2 min at 95° C. and allowed to cool. Snake venom (12.5 μL of 1 mg/mL; Crotalus atrox, Sigma) was then added and the plates were agitated and incubated for a further 15 minutes at 30° C. Dowex ion exchange resin (Sigma, chloride form, 200-400 mesh; 200 μL; prepared as a 1:1 Dowex:water stock, thoroughly re-suspended and diluted 2:1 with ethanol) was then added to each well and the plates incubated for 15 min at room temperature on an orbital shaker ensuring sufficient agitation for resin suspension (550 RPM). The reaction mixture was then transferred to a 96 well filter plate (Millipore; 0.45 μm pore size) and filtered into a receiving 96-well plate to remove the dowex suspension. 30 μL of the filtered solution was then transferred to the wells of an Opti-plate (Perkin Elmer) 96 well assay plate and 120 μL of Microscint 40 scintillation fluid was added. The plate was then placed on an orbital shaker for 10 min at high speed (900 rpm) to mix the sample with scintillation fluid prior to quantitation using a plate based scintillation counter (Top-Count).
The % increase in counts in the presence of test compound at a particular concentration indicates the % increase in enzyme activity at that concentration.

In experiment [2] the target is T2, PDE4D5 (Homo sapiens, UniProt Q08499).
T2 construct: Using Full-Length Human PDE4 Isoforms; Long Forms PDE4D5, PDE4C3, PDE4B1 and Short Form PDE4B2; made in house; cytosol fraction of cell lysate
T2 sequence (Q08499 1-745 isoform Q08499-6): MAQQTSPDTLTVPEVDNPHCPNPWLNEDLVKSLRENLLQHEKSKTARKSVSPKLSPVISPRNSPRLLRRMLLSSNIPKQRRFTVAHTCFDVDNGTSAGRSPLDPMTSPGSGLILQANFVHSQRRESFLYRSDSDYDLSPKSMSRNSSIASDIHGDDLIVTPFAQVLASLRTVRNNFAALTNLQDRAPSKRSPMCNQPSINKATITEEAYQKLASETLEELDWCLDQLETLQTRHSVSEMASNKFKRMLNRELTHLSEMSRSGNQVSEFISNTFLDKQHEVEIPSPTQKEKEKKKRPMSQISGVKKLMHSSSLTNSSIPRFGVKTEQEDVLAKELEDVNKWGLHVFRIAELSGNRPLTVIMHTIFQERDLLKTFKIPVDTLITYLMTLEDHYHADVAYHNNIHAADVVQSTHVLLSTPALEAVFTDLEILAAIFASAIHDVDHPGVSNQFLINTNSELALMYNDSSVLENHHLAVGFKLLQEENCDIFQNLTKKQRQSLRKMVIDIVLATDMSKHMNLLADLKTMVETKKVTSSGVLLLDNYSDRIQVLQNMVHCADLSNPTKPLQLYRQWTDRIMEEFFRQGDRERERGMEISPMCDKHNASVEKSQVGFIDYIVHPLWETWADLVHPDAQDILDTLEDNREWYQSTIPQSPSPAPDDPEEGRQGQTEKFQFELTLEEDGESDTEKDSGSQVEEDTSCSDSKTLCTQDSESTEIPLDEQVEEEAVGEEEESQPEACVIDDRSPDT
The experiment can be described thus: PDE assay, activation of PDE4D5 long form (Experiment 1). The settings on record: 100 μM test compound; mean % increase in counts over basal activity. It counts as biochemical. The method, then:
as §1, §2
For transient transfection of exogenous PDE4 long isoforms, HEK 293 cells were transfected with pcDNA3.1 or pDEST^TM PDE4 expression vectors using Lipofectamine LTX/Plus reagent (Invitrogen) as outlined by the manufacturer.
as §3
HEK-PDE4D5 cells were seeded out in 100 mm plates and incubated at 37° C. in an atmosphere of 5% CO2, 95% air. Cell lysates were prepared using KHEM buffer [50 mM KCl, 10 mM EGTA, 50 mM HEPES (pH 7.2), 1.92 mM MgCl2].
To prepare the cell lysates, the 100 mm plates containing the cells were placed on ice and washed with ice-cold PBS (phosphate buffered saline, pH 7.4). KHEM buffer (500 μL) was added to the cells. Cells were then scraped off the plate and triturated using a needle (BD Microlance™ 0.8, 40 mm). The lysed cells were then centrifuged at 2000 rpm for 10 minutes to remove cell debris and the supernatant (cell lysate containing recombinant PDE4D5) was transferred to a fresh tube and kept on ice.
The cell lysate containing recombinant PDE4D5 was transferred into a centrifuge tube and placed into an ultracentrifuge (BECKMAN COULTER) and spun at high speed (100,000 g) for 30 minutes at 4° C. The cytosol fraction was then collected and its protein amount determined using a BCA protein assay.
as §4, with “30 μL of the filtered solution was then transferred to the wells of an Opti-plate (Perkin Elmer) 96 well assay plate and 120 μL of Microscint 40 scintillation fluid was added. The plate was then placed on an orbital shaker for 10 min at high speed (900 rpm) to mix the sample with scintillation fluid prior to quantitation using a plate based scintillation counter (Top-Count).” left out

Each structure is given as a SMILES string.

T1 sequence (Q07343 1-564 isoform Q07343-2): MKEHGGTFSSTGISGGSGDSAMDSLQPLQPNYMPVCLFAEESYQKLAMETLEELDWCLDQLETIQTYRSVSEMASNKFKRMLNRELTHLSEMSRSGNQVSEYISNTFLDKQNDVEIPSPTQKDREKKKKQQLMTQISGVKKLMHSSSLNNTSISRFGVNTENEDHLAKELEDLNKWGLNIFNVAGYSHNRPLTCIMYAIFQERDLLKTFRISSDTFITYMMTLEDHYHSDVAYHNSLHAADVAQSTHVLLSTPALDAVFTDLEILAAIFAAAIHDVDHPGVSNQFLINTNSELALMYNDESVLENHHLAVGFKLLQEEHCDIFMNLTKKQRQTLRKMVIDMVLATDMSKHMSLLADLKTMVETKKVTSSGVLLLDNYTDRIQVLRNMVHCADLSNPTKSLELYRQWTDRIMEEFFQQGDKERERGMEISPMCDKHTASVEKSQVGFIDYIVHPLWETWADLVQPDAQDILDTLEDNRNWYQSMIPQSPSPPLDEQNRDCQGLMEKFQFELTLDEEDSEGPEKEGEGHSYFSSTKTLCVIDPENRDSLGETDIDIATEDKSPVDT

Consider `O=C(N[C@H]1CCOc2ccccc21)c1ccc2[nH]c(-c3cccnc3)nc2c1` [Example 8, (S)—N-(chroman-4-yl)-2-(pyridin-3-yl)-1H-benzo[d]imidazole-5-carboxamide], for which the activation at 100 µM was -35% in experiment [1] and 52% in experiment [2].

As to `O=C(N[C@H]1CCc2ccccc21)c1ccc2[nH]c(-c3cccnc3)nc2c1` [Example 10, (S)—N-(2,3-dihydro-1H-inden-1-yl)-2-(pyridin-3-yl)-1H-benzo[d]imidazole-5-carboxamide], the activation at 100 µM in experiment [1] was -35%; in experiment [2], 46%.

On to `O=C(N[C@@H]1CCOc2ccc(Cl)cc21)c1ccc2[nH]c(-c3cccnc3)nc2c1` [Example 11, (R)—N-(6-chlorochroman-4-yl)-2-(pyridin-3-yl)-1H-benzo[d]imidazole-5-carboxamide], for which, in experiment [2], the activation at 100 µM was 35%.

Take `CN1CCC(c2nc3cc(C(=O)N[C@H]4CCCc5ccccc54)ccc3[nH]2)CC1` [Example 15, (S)-2-(1-methylpiperidin-4-yl)-N-(1,2,3,4-tetrahvdronaphthalen-1-yl)-1H-benzo[d]imidazole-5-carboxamide]: the activation at 100 µM is 3% in experiment [1] and 123% in experiment [2].

`O=C(N[C@H]1CCOc2ccccc21)c1ccc2nc(-c3cccnc3)nn2c1` [Example 34, (S)—N-(chroman-4-yl)-2-(pyridin-3-yl)-[1,2,4]triazolo[1,5-a]pyridine-6-carboxamide]: the activation at 100 µM in experiment [1] was 0%; in experiment [2], 176%.

For `Cc1ccc(-c2nc3ccc(C(=O)N[C@H]4CCOc5ccccc54)cn3n2)cn1` [Example 35, (S)—N-(chroman-4-yl)-2-(6-methylpyridin-3-yl)-[1,2,4]triazolo[1,5-a]pyridine-6-carboxamide], the activation at 100 µM was -11% in experiment [1] and 68% in experiment [2].

On to `Cc1cncc(-c2nc3ccc(C(=O)N[C@H]4CCOc5ccccc54)cn3n2)c1` [Example 36, (S)—N-(chroman-4-yl)-2-(5-methylpyridin-3-yl)-[1,2,4]triazolo[1,5-a]pyridine-6-carboxamide], for which the activation at 100 µM in experiment [1] amounted to 6%; in experiment [2], 57%.

With `Cc1ccncc1-c1nc2ccc(C(=O)N[C@H]3CCOc4ccccc43)cn2n1` [Example 37, (S)—N-(chroman-4-yl)-2-(4-methylpyridin-3-yl)-[1,2,4]triazolo[1,5-a]pyridine-6-carboxamide], the activation at 100 µM in experiment [1] is -24%; in experiment [2], 127%.

In the case of `Cc1ccc(-c2nc3ccc(C(=O)N[C@H]4CCOc5ccccc54)cn3n2)c(C)n1` [Example 39, (S)—N-(chroman-4-yl)-2-(2,6-dimethylpyridin-3-yl)-[1,2,4]triazolo[1,5-a]pyridine-6-carboxamide], the activation at 100 µM in experiment [1] was -28%; in experiment [2] it was 63%.

`O=C(N[C@H]1CCOc2ccccc21)c1cnc2cc(-c3cccnc3)nn2c1` [Example 90, (S)—N-(chroman-4-yl)-2-(pyridin-3-yl)pyrazolo[1,5-a]pyrimidine-6-carboxamide]: the values for the activation at 100 µM in experiment [1] and in experiment [2] were -8% and 99%, respectively.

These data come from patent US20260007680A1, “Compounds and Their Use as PDE4 Activators” (Mironid Limited, priority 2022, published 2026).
